Key:
[1] = tested on: GFP+CD31+ aortic cells; experiment: Bone formation assay in vivo with GFP+CD31+ aortic cells of treated mice; parameters: species or system mouse
Experimental: Then, mice were treated with or without SB216763 for 2 weeks. […] Then, the alteration of GFP and CD31 double positive cells (GFP+CD31+) were characterized after SB216763 treatment. […] Same numbers of cells of each group were used to perform a transplantation experiment to examine the capacity of bone formation by using bone formation assay in vivo.

[2] = tested on: vascular repair; experiment: Hindlimb ischemia model in nude mice after cell transplantation; type: in vivo, mouse
Experimental: Then, same cells in a model of hindlimb ischemia in nude mice to evaluate the capacity of eGFP positive cells in vascular repair were tested. After ligation of the proximal and distal femoral artery, eGFP positive cells were transplanted (FIG. 2, Part F). Human aortic endothelial cells (HAECs) and osteoblasts were used as controls.
Tube formation assays in vitro was then tested. […] Cells into hindlimb ischemia mouse model were transplanted.
Laser Doppler perfusion imaging was performed using real-time microcirculation imaging system (Perimed). The imaging was conducted under normal ambient room lighting. 20×27 mm high resolution model was used with 1388×1038 pixels measurement camera and 752×580 pixels documentation camera as one image per second. The image resolution was set up as 20 μm/pixel and 21 images per frame until stopped. Windows based PIMSoft software (Perimed) was used to process the data.
The murine model of hindlimb ischemia was performed as previously described. A 10 mm long incision of the skin was made towards the medial thigh. The femoral artery was exposed and separated from femoral vein and nerve. Silk sutures were used to tie the proximal and the distal end of femoral artery with double knots. The cells (5×10^5) were transplanted into the surgical area and the incision was closed. Laser Doppler perfusion imaging was used to monitor the blood flow at different time points. Histology and immunostaining were used to examine the vascularization 2 weeks after transplantation.

[3] = tested on: Flk1-eGFP osteoblasts (mouse osteoblast line MC3T3); experiment: High throughput screen for eGFP expression in Flk1-eGFP osteoblasts; type: cell-based; conditions: after 14 days of treatment
Text: A high throughput screen was generated by modifying the mouse osteoblast line MC3T3. Fetal liver kinase 1 (Flk1) promoter-driven enhanced green fluorescent protein (eGFP) was introduced into these osteoblasts. […] Several libraries of small molecules, including a FDA-approved drug library, a UCLA in-house collection, and a custom set of compounds were screened. These libraries contained more than 22,000 small molecules ranging from natural products to synthesized compounds. […] It was further determined the specificity of endothelial differentiation by closely examining other vascular lineage markers including smooth muscle cells (SMCs), pericytes, and fibroblasts by using real-time PCR. […] Because GSK3 is important in glucose metabolism, the expression of genes related to glucose metabolism was determined in the SB216763-treated osteoblasts, such as casein kinase 2, glucose transporter 4, and insulin receptor substrates 1 and 2.
MC3T3 cells were stably infected with Flk1 promoter-driven eGFP by using Flk1-eGFP lentivirus (GeneCopoeia™). […] The plates were transferred and delivered by a Thermo Scientific™ Spinnaker™ Robot (ThermoFisher Scientific). eGFP expression was determined and imaged using a FlexStation II and Victor 3V (Perkin Elmer) every day for two weeks.

[4] = tested on: mouse osteoblast line MC3T3; experiment: Real-time PCR of osteogenic, endothelial and other lineage markers in treated mouse osteoblasts; type: cell-based
Text: A high throughput screen was generated by modifying the mouse osteoblast line MC3T3. Fetal liver kinase 1 (Flk1) promoter-driven enhanced green fluorescent protein (eGFP) was introduced into these osteoblasts. […] Several libraries of small molecules, including a FDA-approved drug library, a UCLA in-house collection, and a custom set of compounds were screened. These libraries contained more than 22,000 small molecules ranging from natural products to synthesized compounds. […] Using arrange of dose (1-10 μM), it is shown that the reduction of the osteogenic markers Cbfa1, osterix and osteocalcin and the induction of the endothelial markers CD34, VE-cadherin, CD31 and eNOS occurred in a dose-dependent manner (FIG. 1, Part E). Osteoblasts were then treated with 10 μM SB216763 and examined the time-course expression of these osteogenic and endothelial markers. […] To determine if a mesenchymal stage or emerging stemness is required for SB216763 to induce osteoblastic-endothelial transdifferentiation, mesenchymal and stem cell markers were examined and found no induction in the SB216763-treated cells (FIG. 9, Part E). It was further determined the specificity of endothelial differentiation by closely examining other vascular lineage markers including smooth muscle cells (SMCs), pericytes, and fibroblasts by using real-time PCR. In addition, no-vascular lineages, such as cardiac, neuronal, hepatic, pulmonary, renal, hematopoietic and adipogenic lineages were examined. […] Because GSK3 is important in glucose metabolism, the expression of genes related to glucose metabolism was determined in the SB216763-treated osteoblasts, such as casein kinase 2, glucose transporter 4, and insulin receptor substrates 1 and 2.
Real-time PCR analysis was performed as previously described. Glyceraldehyde 3-phosphate dehydrogenase (GAPDH) was used as a control gene. Primers and probes for mouse and human Cbfa1, ostrix, osteocalcin, CD34, VE-cadherin, CD31, eNOS, SMAD1, and β-catenin, were obtained from Applied Biosystems as part of Tagman® Gene Expression Assays.

[5] = tested on: GSK3α and GSK3β; conditions: cited from earlier work
[6] = tested on: mouse osteoblast line MC3T3; experiment: Flow cytometric analysis of SB216763-treated osteoblasts with anti-CD31 and anti-VE-cadherin antibodies; type: cell-based
Text: A high throughput screen was generated by modifying the mouse osteoblast line MC3T3. Fetal liver kinase 1 (Flk1) promoter-driven enhanced green fluorescent protein (eGFP) was introduced into these osteoblasts. […] Several libraries of small molecules, including a FDA-approved drug library, a UCLA in-house collection, and a custom set of compounds were screened. These libraries contained more than 22,000 small molecules ranging from natural products to synthesized compounds. […] Using arrange of dose (1-10 μM), it is shown that the reduction of the osteogenic markers Cbfa1, osterix and osteocalcin and the induction of the endothelial markers CD34, VE-cadherin, CD31 and eNOS occurred in a dose-dependent manner (FIG. 1, Part E). Osteoblasts were then treated with 10 μM SB216763 and examined the time-course expression of these osteogenic and endothelial markers. […] It was further determined the specificity of endothelial differentiation by closely examining other vascular lineage markers including smooth muscle cells (SMCs), pericytes, and fibroblasts by using real-time PCR. […] Because GSK3 is important in glucose metabolism, the expression of genes related to glucose metabolism was determined in the SB216763-treated osteoblasts, such as casein kinase 2, glucose transporter 4, and insulin receptor substrates 1 and 2. […]

[7] = dose range 1-10 μM, dose-dependent manner

- expression of genes related to glucose metabolism (casein kinase 2, glucose transporter 4, insulin receptor substrates 1 and 2) ([4]; treated osteoblasts): No changes were detected
Structure (SMILES): Cn1cc(C2=C(c3ccc(Cl)cc3Cl)C(=O)NC2=O)c2ccccc21 [SB216763]
- osteocytes in implants, histology ([1]; implants with GFP+CD31+ aortic cells of treated group): lack of osteocytes
- ectopic bone by Micro-CT ([1]; implants with GFP+CD31+ aortic cells of treated group vs controls): smaller size of ectopic bone, less trabecular formation and less bone volume
- blood flow, Laser Doppler perfusion imaging ([2]; SB216763-treated cells with restoring SMAD1 vs controls): No difference was observed
- blood flow, Laser Doppler perfusion imaging ([2]; SB216763-treated osteoblasts with depletion of β-catenin vs cells without depletion): less blood flow
- vascular density, histology and immunostaining ([2]; transplanted eGFP positive cells): increase in vascular density
- limb blood flow, Laser Doppler perfusion imaging ([2]; transplanted eGFP positive cells compared to osteoblasts): significantly higher limb blood flow
- cell morphology [3]: converted osteoblasts into EC-like morphology
- eGFP expression [3]: strongly activated eGFP expression
- time-course expression of osteogenic and endothelial markers ([4]; 10 μM): a reduction of osteogenic markers preceded the induction of the endothelial markers
- expression of endothelial markers CD34, VE-cadherin, CD31 and eNOS [4, 7]: induction
- expression of osteogenic markers Cbfa1, osterix and osteocalcin [4, 7]: reduction
- other vascular and non-vascular lineage markers (SMC, pericyte, fibroblast, cardiac, neuronal, hepatic, pulmonary, renal, hematopoietic, adipogenic) ([4]; real-time PCR): No changes were found
- mesenchymal and stem cell markers ([4]; treated cells): no induction
- inhibition of GSK3 isoforms GSK3α and GSK3β [5]: specifically inhibits the activity of these GSK3 isoforms in an ATP competitive manner
- treated osteoblasts expressing the endothelial markers CD31 and VE-cadherin [6]: more than 85%

Reference: patent publication US20230285357A1, “COMPOSITIONS AND METHODS FOR […] CELLS” (The Regents of the University of California, priority 2020, published 2023)
